Results published in US20250312469A1 (CANGET BIOTEKPHARMA, priority 2024, published 2025).

What was measured:
[1] = target: T1, USP2a (Homo sapiens, UniProt O75604); test: USP2a deubiquitinase in vitro reconstitution assay; settings: 50 nM FL118; polyUb MdmX
T1 sequence (O75604 1-605): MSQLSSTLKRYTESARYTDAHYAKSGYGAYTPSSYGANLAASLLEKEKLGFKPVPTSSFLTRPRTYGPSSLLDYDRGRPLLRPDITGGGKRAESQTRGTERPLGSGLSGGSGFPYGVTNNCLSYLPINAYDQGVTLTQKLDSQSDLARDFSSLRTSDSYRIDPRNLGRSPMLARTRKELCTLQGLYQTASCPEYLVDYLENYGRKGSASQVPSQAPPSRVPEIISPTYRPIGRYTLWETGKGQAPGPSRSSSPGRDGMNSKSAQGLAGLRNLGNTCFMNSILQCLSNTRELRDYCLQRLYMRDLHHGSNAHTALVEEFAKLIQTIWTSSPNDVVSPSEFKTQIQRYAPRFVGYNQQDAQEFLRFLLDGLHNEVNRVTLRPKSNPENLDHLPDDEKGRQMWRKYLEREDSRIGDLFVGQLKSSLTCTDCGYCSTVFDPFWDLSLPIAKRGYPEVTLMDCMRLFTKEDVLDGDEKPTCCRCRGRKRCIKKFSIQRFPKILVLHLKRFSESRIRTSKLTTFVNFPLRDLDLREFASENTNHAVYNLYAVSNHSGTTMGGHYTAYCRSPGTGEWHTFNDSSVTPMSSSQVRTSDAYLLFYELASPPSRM
Description: Flag-tagged MdmX (0.1 μM) was mixed with 0.1 μM Mdm2 for 60 min at 30° C. in the presence of UbE1, UbE2D3, ubiquitin, and ATP in a buffer. […] Reactions were then immunoblotted with Flag antibody. Signals were detected with enhanced chemiluminescence (ECL). […] Each bar in FIG. 28D is the mean±SD from 3 independent analyses. […] Each bar is the mean±SD from 3 independent analyses; the t-test was used for P-values: * P≤0.5; ** P≤0.01; *** P≤0.001.

[2] = target: T2, UbE2T (Homo sapiens, UniProt Q9NPD8); test: ProtoArray protein microarray probed with 3H-FL118; type: binding; design: purchased Invitrogen ProtoArray Human Protein Microarray v5.0; settings: 3H-FL118 0.5 μM
T2 sequence (Q9NPD8 1-197): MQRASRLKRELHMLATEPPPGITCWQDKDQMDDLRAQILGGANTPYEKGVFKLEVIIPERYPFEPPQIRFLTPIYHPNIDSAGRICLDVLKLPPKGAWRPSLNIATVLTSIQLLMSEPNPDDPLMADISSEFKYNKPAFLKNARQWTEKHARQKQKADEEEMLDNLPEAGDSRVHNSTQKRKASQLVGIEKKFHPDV
Description: (§1) The flask was then immersed in silicone oil bath at 180° C.-190° C. for 6 hours. The tritium gas was removed. The reaction mixture was dissolved in 1 mL of DMSO and back-exchanged 10× with 50% ethanol. Injected directly to CapCeLL PAK C-18 column (4.6×250 mm), mobile phase 30% CH3CN, 0.1% TFA, flow 1 mL/min, U.V. =200 nm, r.t. =40 min. After purification, total activity was 5 mCi (solid) with a specificity of 5.6 Ci/mmol at a radiochemical purity of >97% for ^3H-FL118. […] The flask was then immersed in silicone oil bath at 190° C. for 24 h. The tritium gas was removed. The reaction mixture was dissolved in 1 mL of DMSO and back-exchanged 10× with 50% ethanol and injected directly to CapCeLL Pak C-18 column (4.6×250 mm), mobile phase 30% CH3CN, 0.1% TFA, […], U.V. =200 nm, r.t. =40 min. After purification total activity was 5 mCi (solid) with a specificity of 16.5 Ci/mmol at a radiochemical purity of ≥81% for ^3H-FL118.
(§2) Use of ^3H-FL118 as a radioactive probe to search FL118-binding proteins through screening of human protein microarray (ProtoArray R with 9,400 human proteins, Invitrogen): The study process includes the following steps.
(§3) 1. Blocking the ProtoArray: (i) Immediately place the mailer containing the Human Protein Microarray v5.0 at 4° C. upon removal from storage at −20° C. and equilibrate the mailer at 4° C. for at least 15 minutes prior to use. (ii) Place Human Protein Microarrays with the barcode facing up in the bottom of a 4-chamber incubation tray such that the barcode end of the microarray is near the tray end containing an indented numeral. […] Avoid pipetting buffer directly onto the array surface. (iv) Incubate the tray for 1 hour at 4° C. on a shaker set at 50 rpm (circular shaking). (v) After incubation, remove Protein Microarrays from FL118 Assay Buffer. To remove array from the 4-chamber incubation tray, insert the tip of forceps into the indented numeral end and gently pry the array upward. Using a gloved hand, pick up the microarray by holding the array by its edges only. Tap to remove excess liquid from slide surface. (vi) Proceed immediately to Probing the Array.
(§4) 2. Probing the ProtoArray: (i) Place each ProtoArray horizontally in a separate sterile 50 mL conical tube with about ⅓ of the array extended outside of the tube. The barcoded end of the array should protrude from the tube (face up). (ii) For each ProtoArray, add 100 μL of probing mixture including ^3H-FL118 (final concentration of ^3H-FL118 at 0.1 μM and 0.5 μM, respectively on different ProtoArray) and the positional mapping reagent ^3H-estradiol and pipet the mixture gently onto the surface of the ProtoArray. (iii) Gently place a coverslip over the surface of the ProtoArray using forceps to avoid capturing bubbles. […]

[3] = target: T1, USP2a; test: ProtoArray protein microarray probed with 3H-FL118; type: binding; design: purchased Invitrogen ProtoArray Human Protein Microarray v5.0; settings: 3H-FL118 0.5 μM
Description: as §1, §2, §3, §4

With CCC1(O)C(=O)OCc2c1cc1n(c2=O)Cc2cc3cc4c(cc3nc2-1)OCO4 (centres unmarked) [FL118] the USP2a deubiquitinase activity [1] was “inhibited USP2a deubiquitinase activity”, the Signal used [2] was 1812 3H counts per min and the Z-Score [2] was 3.2. The Signal used [3] was 1959 3H counts per min and the Z-Score [3] was 3.7.
